# According to article PMC7180948, “New Insights into 4-Anilinoquinazolines as Inhibitors of Cardiac Troponin I–Interacting Kinase (TNNi3K)” (Molecules, 2020):
# How the values were obtained:
# Assay in all cases: biochemical
# Design in all cases: KINOMEscan competition binding panel (Eurofins DiscoverX), single concentration, percent inhibition
# Details in all cases: read-out: 15 at 1 µM % inhibition
# MARK4 = MARK4 (Homo sapiens, UniProt Q96L34)
# Experimental: (§1) KinomeScan® Assay on 7 and 15 was performed as previously described by EuroFins DiscoverX [24]. GSK114 (7) and 15 were submitted for a KINOMEscan® assay to explore the selectivity profile across >400 human kinases at a compound concentration of 1 µM. […] GSK114 (7) is a narrow-spectrum TNNi3K inhibitor but has some potent off-targets including GAK which has been previously reported for this chemotype. […] If utilized together this set of compounds could be useful to investigate TNNi3K biology.
# MLK3 = target: T1, MLK3 (Homo sapiens, UniProt Q16584)
# T1 construct: gene MAP3K11
# Experimental: as §1
# GRK1 = GRK1 (Homo sapiens, UniProt Q15835)
# Experimental: as §1
# ADCK4 = target: T2, ADCK4 (Homo sapiens, UniProt Q96D53)
# T2 construct: gene COQ8B
# Experimental: as §1
# PAK1 = PAK1 (Homo sapiens, UniProt Q13153)
# Experimental: as §1
# [1] = target: T3, RPS6KA4(Kin.Dom.1-N-terminal) (Homo sapiens, UniProt O75676)
# T3 construct: Kin.Dom.1-N-terminal
# Experimental: as §1
# [2] = target: T4, TYK2(JH1domain-catalytic) (Homo sapiens, UniProt P29597)
# T4 construct: JH1domain-catalytic
# Experimental: as §1
# EPHA6 = EPHA6 (Homo sapiens, UniProt Q9UF33)
# Experimental: as §1
# LIMK1 = LIMK1 (Homo sapiens, UniProt P53667)
# Experimental: as §1
# RIPK4 = RIPK4 (Homo sapiens, UniProt P57078)
# Experimental: as §1
# BRK = target: T5, BRK (Homo sapiens, UniProt Q13882)
# T5 construct: gene PTK6
# Experimental: as §1
# FLT3(K663Q) = FLT3(K663Q) (Homo sapiens, UniProt P36888, K663Q)
# Experimental: as §1
# TRKC = target: T6, TRKC (Homo sapiens, UniProt Q16288)
# T6 construct: gene NTRK3
# Experimental: as §1
# MUSK = MUSK (Homo sapiens, UniProt O15146)
# Experimental: as §1
# PRKD1 = PRKD1 (Homo sapiens, UniProt Q15139)
# Experimental: as §1
# GCN2(Kin.Dom.2,S808G) = target: T7, GCN2(Kin.Dom.2,S808G) (Homo sapiens, UniProt Q9P2K8, S808G)
# T7 construct: gene EIF2AK4; Kin.Dom.2
# Experimental: as §1
# MYLK2 = MYLK2 (Homo sapiens, UniProt Q9H1R3)
# Experimental: as §1
# RET = RET (Homo sapiens, UniProt P07949)
# Experimental: as §1
# FLT3(D835H) = FLT3(D835H) (Homo sapiens, UniProt P36888, D835H)
# Experimental: as §1
# PFTK1 = target: T8, PFTK1 (Homo sapiens, UniProt O94921)
# T8 construct: gene CDK14
# Experimental: as §1
# ABL1-phosphorylated = target: T9, ABL1-phosphorylated (Homo sapiens, UniProt P00519)
# T9 construct: phosphorylated
# Experimental: as §1
# EPHB4 = EPHB4 (Homo sapiens, UniProt P54760)
# Experimental: as §1
# EGFR(T790M) = EGFR(T790M) (Homo sapiens, UniProt P00533, T790M)
# Experimental: as §1
# TRPM6 = TRPM6 (Homo sapiens, UniProt Q9BX84)
# Experimental: as §1
# Sequence of TRPM6 (Q9BX84 whole entry): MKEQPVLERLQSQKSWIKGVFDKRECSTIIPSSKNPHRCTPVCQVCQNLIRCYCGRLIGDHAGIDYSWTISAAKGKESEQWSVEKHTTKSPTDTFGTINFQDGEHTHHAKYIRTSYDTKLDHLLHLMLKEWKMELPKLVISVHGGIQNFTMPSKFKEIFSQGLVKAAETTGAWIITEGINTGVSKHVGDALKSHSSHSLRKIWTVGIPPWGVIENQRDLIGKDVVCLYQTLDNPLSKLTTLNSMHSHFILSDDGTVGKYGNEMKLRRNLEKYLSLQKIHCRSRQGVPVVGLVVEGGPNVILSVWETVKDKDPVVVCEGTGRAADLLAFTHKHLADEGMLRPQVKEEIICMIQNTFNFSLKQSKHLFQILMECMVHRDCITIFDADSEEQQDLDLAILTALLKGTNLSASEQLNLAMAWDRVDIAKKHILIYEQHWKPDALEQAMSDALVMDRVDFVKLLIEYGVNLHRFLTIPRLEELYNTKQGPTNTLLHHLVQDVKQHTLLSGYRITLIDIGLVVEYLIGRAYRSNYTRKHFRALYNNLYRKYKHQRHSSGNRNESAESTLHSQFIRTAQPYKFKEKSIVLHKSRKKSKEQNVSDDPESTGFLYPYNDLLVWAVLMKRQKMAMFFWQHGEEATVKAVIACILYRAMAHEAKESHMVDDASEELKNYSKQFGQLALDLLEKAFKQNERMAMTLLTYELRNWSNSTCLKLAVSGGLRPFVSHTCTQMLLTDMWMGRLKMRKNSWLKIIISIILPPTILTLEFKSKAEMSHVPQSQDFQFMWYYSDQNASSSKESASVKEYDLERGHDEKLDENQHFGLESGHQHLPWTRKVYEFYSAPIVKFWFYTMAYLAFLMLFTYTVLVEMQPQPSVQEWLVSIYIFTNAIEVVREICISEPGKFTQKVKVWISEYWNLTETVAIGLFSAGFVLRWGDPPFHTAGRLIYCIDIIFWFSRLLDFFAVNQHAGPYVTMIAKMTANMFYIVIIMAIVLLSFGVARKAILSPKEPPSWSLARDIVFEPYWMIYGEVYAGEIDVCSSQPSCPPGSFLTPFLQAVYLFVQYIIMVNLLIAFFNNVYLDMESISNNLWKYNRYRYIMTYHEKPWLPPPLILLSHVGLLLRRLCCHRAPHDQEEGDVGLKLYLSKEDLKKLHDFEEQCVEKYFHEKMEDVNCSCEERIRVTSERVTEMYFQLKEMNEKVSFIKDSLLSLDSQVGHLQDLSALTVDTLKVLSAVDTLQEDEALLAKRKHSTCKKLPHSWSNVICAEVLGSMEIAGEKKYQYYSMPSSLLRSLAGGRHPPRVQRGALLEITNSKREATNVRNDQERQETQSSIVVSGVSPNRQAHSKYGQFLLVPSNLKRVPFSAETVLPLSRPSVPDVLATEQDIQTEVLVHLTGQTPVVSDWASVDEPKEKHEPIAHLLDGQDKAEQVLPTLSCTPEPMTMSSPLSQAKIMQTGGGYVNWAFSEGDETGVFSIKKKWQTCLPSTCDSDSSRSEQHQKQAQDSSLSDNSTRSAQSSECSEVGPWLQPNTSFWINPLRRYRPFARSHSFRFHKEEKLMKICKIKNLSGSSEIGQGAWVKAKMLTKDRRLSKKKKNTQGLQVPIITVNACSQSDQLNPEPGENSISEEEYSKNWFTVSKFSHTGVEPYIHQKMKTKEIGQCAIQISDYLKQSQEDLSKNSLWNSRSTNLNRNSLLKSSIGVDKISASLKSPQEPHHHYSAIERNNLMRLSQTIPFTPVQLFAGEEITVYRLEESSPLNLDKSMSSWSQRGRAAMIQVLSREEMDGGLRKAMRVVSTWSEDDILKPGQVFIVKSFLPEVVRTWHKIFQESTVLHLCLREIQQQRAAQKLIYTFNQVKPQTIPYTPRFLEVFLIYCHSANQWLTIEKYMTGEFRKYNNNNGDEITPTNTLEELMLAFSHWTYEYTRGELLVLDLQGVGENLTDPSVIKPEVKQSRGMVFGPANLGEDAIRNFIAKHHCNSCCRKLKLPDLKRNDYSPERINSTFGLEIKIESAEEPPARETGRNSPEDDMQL
# Sequence of RIPK4 (P57078 whole entry): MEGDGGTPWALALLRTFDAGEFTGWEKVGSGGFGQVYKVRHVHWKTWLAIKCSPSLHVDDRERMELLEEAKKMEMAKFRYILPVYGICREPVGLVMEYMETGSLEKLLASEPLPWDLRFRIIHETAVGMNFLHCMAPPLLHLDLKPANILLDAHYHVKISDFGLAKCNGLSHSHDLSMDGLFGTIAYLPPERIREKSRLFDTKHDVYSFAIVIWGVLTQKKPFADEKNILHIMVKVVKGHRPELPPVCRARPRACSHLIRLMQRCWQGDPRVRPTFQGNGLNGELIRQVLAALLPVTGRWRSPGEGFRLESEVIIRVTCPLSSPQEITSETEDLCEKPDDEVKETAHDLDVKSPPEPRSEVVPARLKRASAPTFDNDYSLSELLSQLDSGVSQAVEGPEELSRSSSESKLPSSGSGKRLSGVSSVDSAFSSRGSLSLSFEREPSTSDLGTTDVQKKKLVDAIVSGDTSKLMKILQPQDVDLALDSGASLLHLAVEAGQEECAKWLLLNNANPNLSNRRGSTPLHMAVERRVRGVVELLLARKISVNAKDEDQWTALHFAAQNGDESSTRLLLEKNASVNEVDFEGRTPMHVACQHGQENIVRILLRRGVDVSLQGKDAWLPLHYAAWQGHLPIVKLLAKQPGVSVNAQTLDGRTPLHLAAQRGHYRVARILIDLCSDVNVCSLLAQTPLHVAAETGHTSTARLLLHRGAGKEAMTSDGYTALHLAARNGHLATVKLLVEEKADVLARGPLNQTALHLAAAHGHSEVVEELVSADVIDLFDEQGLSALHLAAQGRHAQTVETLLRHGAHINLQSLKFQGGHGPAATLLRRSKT
# T2 sequence (Q96D53 whole entry): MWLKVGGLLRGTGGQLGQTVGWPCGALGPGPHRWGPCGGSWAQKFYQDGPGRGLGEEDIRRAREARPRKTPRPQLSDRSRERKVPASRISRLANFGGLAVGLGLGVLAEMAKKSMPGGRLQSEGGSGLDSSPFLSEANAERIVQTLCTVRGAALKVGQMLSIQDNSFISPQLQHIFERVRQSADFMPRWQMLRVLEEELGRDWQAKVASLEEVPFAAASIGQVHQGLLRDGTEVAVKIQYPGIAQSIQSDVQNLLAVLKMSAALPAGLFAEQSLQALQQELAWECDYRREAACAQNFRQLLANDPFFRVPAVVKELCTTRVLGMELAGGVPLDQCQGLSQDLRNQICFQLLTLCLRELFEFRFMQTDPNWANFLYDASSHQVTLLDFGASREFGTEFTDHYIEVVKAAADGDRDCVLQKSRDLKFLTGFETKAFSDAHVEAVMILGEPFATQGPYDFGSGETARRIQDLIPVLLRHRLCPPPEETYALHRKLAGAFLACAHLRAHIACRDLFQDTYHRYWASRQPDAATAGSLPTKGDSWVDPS
# Sequence of LIMK1 (P53667 whole entry): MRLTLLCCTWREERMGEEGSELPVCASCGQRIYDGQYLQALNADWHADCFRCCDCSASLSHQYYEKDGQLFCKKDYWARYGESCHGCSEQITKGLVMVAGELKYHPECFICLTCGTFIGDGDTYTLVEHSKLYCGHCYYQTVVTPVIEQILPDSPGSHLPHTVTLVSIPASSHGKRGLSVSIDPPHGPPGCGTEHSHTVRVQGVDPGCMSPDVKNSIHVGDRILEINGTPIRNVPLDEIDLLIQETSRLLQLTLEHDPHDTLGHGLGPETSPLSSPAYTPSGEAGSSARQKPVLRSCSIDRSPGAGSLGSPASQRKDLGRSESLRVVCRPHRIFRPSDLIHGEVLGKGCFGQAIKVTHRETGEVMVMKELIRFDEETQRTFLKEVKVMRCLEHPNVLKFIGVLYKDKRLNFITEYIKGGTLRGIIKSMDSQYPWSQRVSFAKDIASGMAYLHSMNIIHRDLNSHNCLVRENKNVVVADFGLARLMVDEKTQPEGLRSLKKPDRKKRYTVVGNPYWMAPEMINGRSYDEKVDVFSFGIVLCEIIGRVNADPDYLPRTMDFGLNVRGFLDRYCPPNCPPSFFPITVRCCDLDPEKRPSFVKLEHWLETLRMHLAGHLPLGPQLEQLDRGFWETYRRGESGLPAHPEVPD
# T3 sequence (O75676 whole entry): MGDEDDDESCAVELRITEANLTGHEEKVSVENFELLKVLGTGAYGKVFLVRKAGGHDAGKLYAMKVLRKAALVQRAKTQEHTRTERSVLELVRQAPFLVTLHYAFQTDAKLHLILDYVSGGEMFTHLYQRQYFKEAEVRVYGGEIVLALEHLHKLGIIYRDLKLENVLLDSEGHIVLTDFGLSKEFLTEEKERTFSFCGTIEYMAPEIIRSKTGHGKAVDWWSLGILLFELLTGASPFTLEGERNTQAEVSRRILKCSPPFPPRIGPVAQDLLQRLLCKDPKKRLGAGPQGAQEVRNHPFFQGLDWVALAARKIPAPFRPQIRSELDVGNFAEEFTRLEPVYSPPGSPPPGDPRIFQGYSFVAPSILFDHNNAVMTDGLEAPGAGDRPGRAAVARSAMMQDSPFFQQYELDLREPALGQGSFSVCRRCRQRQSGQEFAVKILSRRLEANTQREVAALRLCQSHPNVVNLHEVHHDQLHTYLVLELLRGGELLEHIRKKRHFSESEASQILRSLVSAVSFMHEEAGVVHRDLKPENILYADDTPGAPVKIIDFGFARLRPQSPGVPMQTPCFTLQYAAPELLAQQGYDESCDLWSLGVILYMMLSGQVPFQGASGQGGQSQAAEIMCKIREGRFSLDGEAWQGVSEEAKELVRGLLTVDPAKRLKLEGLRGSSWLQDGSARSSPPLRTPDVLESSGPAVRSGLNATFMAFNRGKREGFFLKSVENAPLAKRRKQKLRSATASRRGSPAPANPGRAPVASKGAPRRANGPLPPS
compound,measurement,setting,value
"CNS(=O)(=O)c1ccc(N(C)C)c(Nc2nc(C)nc3cc(OC)c(OC)cc23)c1 [compound 15, 3-((6,7-dimethoxy-2-methylquinazolin-4-yl)amino)-4-(dimethylamino)-N-methylbenzenesulfonamide]",inhibition at 1 µM,MARK4,0%
same,inhibition at 1 µM,MLK3,0%
same,inhibition at 1 µM,GRK1,20%
same,inhibition at 1 µM,ADCK4,0%
same,inhibition at 1 µM,PAK1,1%
same,inhibition at 1 µM,[1],3%
same,inhibition at 1 µM,[2],0%
same,inhibition at 1 µM,EPHA6,0%
same,inhibition at 1 µM,LIMK1,0%
same,inhibition at 1 µM,RIPK4,8%
same,inhibition at 1 µM,BRK,0%
same,inhibition at 1 µM,FLT3(K663Q),10%
same,inhibition at 1 µM,TRKC,22%
same,inhibition at 1 µM,MUSK,0%
same,inhibition at 1 µM,PRKD1,15%
same,inhibition at 1 µM,"GCN2(Kin.Dom.2,S808G)",0%
same,inhibition at 1 µM,MYLK2,3%
same,inhibition at 1 µM,RET,0%
same,inhibition at 1 µM,FLT3(D835H),10%
same,inhibition at 1 µM,PFTK1,0%
same,inhibition at 1 µM,ABL1-phosphorylated,0%
same,inhibition at 1 µM,EPHB4,0%
same,inhibition at 1 µM,EGFR(T790M),25%
same,inhibition at 1 µM,TRPM6,6%
